Data reported in article PMC9925730, “Controlled sequential in situ self-assembly and disassembly of a fluorogenic cisplatin prodrug for cancer theranostics” (Nature Communications, 2023).

Columns and labels:
s.c. HeLa tumors = test: Chemotherapy of s.c. HeLa tumors in vivo; design: species or system mice; conditions: for tumor volume growth on day 21: s.c. HeLa, 2.25 mg kg^−1 Pt i.v. on day 0, 3, 6, 9, 12
Protocol: Sixteen mice with s.c. […] Each experiment was conducted in four mice.

[1] = GSH-triggered reduction, disassembly of Pt^IVNPs and CDDP release in solution (HPLC, DLS, TEM, ICP-OES); design: amount of compound in the P-CyPt solution (HPLC, Fig. 2h) / mean size by TEM (Fig. 2i) / mean size by DLS (Fig. 2i): unit not given here; conditions: for amount of compound in the P-CyPt solution (HPLC, Fig. 2h) / Pt release (ICP-OES, Fig. 2h) / mean size by DLS (Fig. 2i) / mean size by TEM (Fig. 2i): P-CyPt 10 μM
Protocol: To evaluate the ALP-triggered dephosphorylation and in situ self-assembly process, a solution of P-CyPt (10 μM) in Tris buffer (1 mL) was incubated with ALP (100 U/L) at 37 °C. HPLC, DLS, and TEM analyses were performed at 0, 5, 10, 15, 20, and 30 min. To evaluate the GSH-triggered reduction and disassembly process, P-CyPt (10 μM) in Tris buffer (1 mL) was first incubated with ALP (100 U/L) at 37 °C for 30 min to allow the formation of Pt^IVNPs. The solution was then treated with 10 mM GSH at 37 °C, which was monitored by HPLC, DLS, and TEM at 10, 20, 30, 40, 50, and 60 min.
(a) 5 mM GSH 10 mM GSH(b ) (c)
60 min 60 min CyPt Cy- CO O H
Time (min) Time (min) Time (min)
Supplementary Figure 9. HPLC traces of the time-dependent conversion of PtIVNPs (CyPt) into Cy-COOH under incubation with 5 mM (a) or 10 mM GSH (b) in Tris buffer. (c) The conversion curves of PtIVNPs (CyPt) into Cy-COOH under incubation with 5 mM (red) or 10 mM GSH (black) in Tris buffer. P-CyPt (10 μM) was incubated with ALP (100 U/L, 37 °C) in Tris buffer for 30 min to allow complete dephosphorylation and in situ self-assembly into PtIVNPs. Then, GSH at a concentration of 5 mM or 10 mM was added and incubated for another 0, 10, 20, 30, 40, 50, and 60 min. The amounts of CyPt and Cy-COOH at each time point were quantified by HPLC.
Date are mean ± s.d. (n = 3 independent experiments). […]
Release of CDDP from PtIVNPs during disassembly process. P-CyPt (10 μM) in 5 mL Tris buffer was incubated with ALP (100 U/L) at 37 °C for 30 min to form PtIVNPs, followed by addition with 10 mM GSH at 37 °C. After 10, 20, 30, 40, 50 and 60 min, 50 mM N-ethylmaleimide was added into the solution to scavenge GSH. The reaction solution was centrifuged at 13,000 × g and the supernatant was collected. The supernatants were digested with concentrated HNO3 (65~70%) and HCl (36~38%) at 90 °C for 24 h. The solution was diluted to 5 mL 2% HNO3 and 5% HCl solution, and the concentration of Pt element was measured by ICP-OES, which was further applied to calculate the amount of CDDP (denoted as NPt) released in the solution. The percentage of Pt release at each time point was calculated according to the formula:
Pt release % = NPt/N0 × 100% (9)
Where N0 represents the total amount of Pt in the in situ formed PtIVNPs, and NPt represents the amount of Pt released from PtIVNPs following incubation with GSH.
Characterization of enzyme kinetics of P-CyPt towards ALP. Briefly, varying concentrations of P-CyPt (0.5, 1.0, 2.0, 3.0, 4.0, and 5.0 μM) in 100 μL Tris buffer were placed in a 96-well black plate. The reactions were initiated upon addition of 100 μL ALP (30 U/L) to each solution. The resulting fluorescence intensities in each well in the first five minutes were recorded on a Spark™ 10M Multimode Microplate Reader (λex/em = 680/710 nm). The amount of CyPt at each time point was determined by a standard curve under the same conditions. Kinetics values, including Km and Vmax, were determined according to the Lineweaver-Burk plot.
Determination of the sensitivity of P-CyPt towards ALP. To evaluate the sensitivity of P-CyPt towards ALP, P-CyPt (10 μM) was incubated with varying concentrations of […]
30 min, and the fluorescence spectra were then recorded on a HORIBA Jobin Yvon Fluoromax-4 fluorometer, with an excitation at 680 nm. The resulting fluorescence intensities at 710 nm were plotted to the con centrations of ALP, and a linear regression fitted from 0 -20 U/L ALP was obtained, affording the slope k. The detection limit was calculated from 3σ/k, where σ represents the standard deviation of 11 blank […]
Determination of the specificity towards ALP. The specificity towards ALP in vitro was evaluated based on fluorescence, respectively. P-CyPt (10 μM) in Tris buffer was incubated with 10 nmol/L of MMP-2, 100 U/L of γ-glutamyl transferase (GGT), 100 U/L Cathepsin B (CTB), 0.2 μg/mL of Caspase-3/7, 2.5 mg/mL of Trypsin, 100 U/L of ALP or 100 U/L ALP pretreated with its inhibitors, Na 3VO4 (100 μM) for 10 min. The […]

[2] = ALP 30 min then GSH 10 mM 10 min (time 40)
[3] = ALP 30 min then GSH 10 mM 20 min (time 50)
[4] = ALP 30 min then GSH 10 mM 30 min (time 60)
[5] = ALP 30 min then GSH 10 mM 40 min (time 70)
[6] = ALP 30 min then GSH 10 mM 50 min (time 80)
[7] = ALP 30 min then GSH 10 mM 60 min (time 90)

In the case of `[NH2][Pt]([NH2])([Cl])[Cl]` [CDDP, cisplatin], the “tumor volume growth on day 21” value (s.c. HeLa tumors) is reported as ~ 15.8 fold.

For `CC1(C)C(/C=C/C2=C3Oc4cc(O)c(Cl)cc4C=C3CCC2)=[N+](CCCNC(=O)[C@@H](Cc2ccccc2)NC(=O)[C@@H](Cc2ccccc2)NC(=O)CCC(=O)[O][Pt]([NH2])([NH2])([OH])([Cl])[Cl])c2ccccc21` [CyPt], the “reduction of CyPt in Pt^IVNPs into Cy-COOH (HPLC)” value ([1]; 5 or 10 mM GSH, after 60 min) was “completely reduced into Cy-COOH”, the “amount of compound in the P-CyPt solution (HPLC, Fig. 2h)” value [1, 2] was 82.67 and the “amount of compound in the P-CyPt solution (HPLC, Fig. 2h)” value [1, 3] was 59.68. The “amount of compound in the P-CyPt solution (HPLC, Fig. 2h)” value [1, 4] was 38.50, the “amount of compound in the P-CyPt solution (HPLC, Fig. 2h)” value [1, 5] was 22.16 and the “amount of compound in the P-CyPt solution (HPLC, Fig. 2h)” value [1, 6] was 9.16. For the same compound, the “amount of compound in the P-CyPt solution (HPLC, Fig. 2h)” value [1, 7] was 0.00.

In the case of `CC1(C)C(/C=C/C2=C3Oc4cc(OP(=O)(O)O)c(Cl)cc4C=C3CCC2)=[N+](CCCNC(=O)[C@@H](Cc2ccccc2)NC(=O)[C@@H](Cc2ccccc2)NC(=O)CCC(=O)[O][Pt]([NH2])([NH2])([OH])([Cl])[Cl])c2ccccc21` [P-CyPt], the “Pt release (ICP-OES, Fig. 2h)” value [1, 2] is reported as 19.98%, the “amount of compound in the P-CyPt solution (HPLC, Fig. 2h)” value [1, 2] is reported as 0 and the “mean size by DLS (Fig. 2i)” value [1, 2] is reported as 133.97. The “mean size by TEM (Fig. 2i)” value [1, 2] was 128.24, the “Pt release (ICP-OES, Fig. 2h)” value [1, 3] was 42.65% and the “amount of compound in the P-CyPt solution (HPLC, Fig. 2h)” value [1, 3] was 0. For the same compound, the “mean size by DLS (Fig. 2i)” value [1, 3] was 96.71, the “mean size by TEM (Fig. 2i)” value [1, 3] was 91.24 and the “Pt release (ICP-OES, Fig. 2h)” value [1, 4] was 64.34%. The “amount of compound in the P-CyPt solution (HPLC, Fig. 2h)” value [1, 4] was 0, the “mean size by DLS (Fig. 2i)” value [1, 4] was 62.38 and the “mean size by TEM (Fig. 2i)” value [1, 4] was 68.92. The “Pt release (ICP-OES, Fig. 2h)” value [1, 5] was 80.43%, the “amount of compound in the P-CyPt solution (HPLC, Fig. 2h)” value [1, 5] was 0 and the “mean size by DLS (Fig. 2i)” value [1, 5] was 35.90. The “mean size by TEM (Fig. 2i)” value [1, 5] was 38.87, the “Pt release (ICP-OES, Fig. 2h)” value [1, 6] was 95.70% and the “amount of compound in the P-CyPt solution (HPLC, Fig. 2h)” value [1, 6] was 0. The “mean size by DLS (Fig. 2i)” value [1, 6] was 14.84, the “mean size by TEM (Fig. 2i)” value [1, 6] was 11.31 and the “Pt release (ICP-OES, Fig. 2h)” value [1, 7] was 99.63%. For the same compound, the “amount of compound in the P-CyPt solution (HPLC, Fig. 2h)” value [1, 7] was 0, the “mean size by DLS (Fig. 2i)” value [1, 7] was 0.00 and the “mean size by TEM (Fig. 2i)” value [1, 7] was 0.00. For the same compound, the “average tumor weight at end of treatment” value (s.c. HeLa tumors; day 21) was “significantly smaller than the other three groups” and the “tumor volume growth on day 21” value (s.c. HeLa tumors) was “no apparent tumor growth”.
